In this test the target is PAK4 (Homo sapiens, UniProt O96013). As to the kind of experiment: radiometric [γ-33P]-ATP kinase assay (Eurofins KinaseProfiler), myelin basic protein substrate. It counts as biochemical.

Read-outs that look alike come from different tables or passages of the source.

Chain of PAK4 (O96013 whole entry): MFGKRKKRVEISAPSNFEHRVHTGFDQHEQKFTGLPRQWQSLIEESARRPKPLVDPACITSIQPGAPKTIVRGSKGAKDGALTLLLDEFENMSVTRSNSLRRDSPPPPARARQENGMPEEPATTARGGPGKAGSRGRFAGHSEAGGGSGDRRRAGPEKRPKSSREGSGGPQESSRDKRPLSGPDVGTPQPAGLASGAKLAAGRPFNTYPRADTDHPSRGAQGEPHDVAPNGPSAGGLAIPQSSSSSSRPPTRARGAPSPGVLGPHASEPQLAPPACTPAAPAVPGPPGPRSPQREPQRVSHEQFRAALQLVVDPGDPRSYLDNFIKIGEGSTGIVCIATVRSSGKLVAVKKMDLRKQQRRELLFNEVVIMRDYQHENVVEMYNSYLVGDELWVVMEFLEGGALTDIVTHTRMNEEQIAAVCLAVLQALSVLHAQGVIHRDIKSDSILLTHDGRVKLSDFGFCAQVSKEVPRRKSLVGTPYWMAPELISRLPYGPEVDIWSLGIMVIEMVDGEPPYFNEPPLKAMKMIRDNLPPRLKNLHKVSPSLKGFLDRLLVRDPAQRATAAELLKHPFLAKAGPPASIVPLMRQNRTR

In the case of `CC(C)c1nn(C)cc1-c1nc2cc(Br)cnc2[nH]1` [compound 1, 6-bromo-2-(3-isopropyl-1-methyl-1H-pyrazol-4-yl)-3H-imidazo[4,5-b]pyridine], the IC50 (read-out: 1) was 5.15 µM.

`CC(C)c1nn(C)cc1-c1nc2cc(Cl)cnc2[nH]1` [compound 2, 6-chloro-2-(3-isopropyl-1-methyl-1H-pyrazol-4-yl)-3H-imidazo[4,5-b]pyridine]: the IC50 (read-out: 2) worked out at 8.53 µM.

The record behind these values is paper PMC8953563, “A Study on the Effect of the Substituent against PAK4 Inhibition Using In Silico Methods” (International Journal of Molecular Sciences, 2022).
